Reference: patent publication US8501953B2, “PKM2 modulators for use in the treatment of cancer” (Agios Pharmaceuticals, Inc, priority 2009, dated 2013)

Molecular target: PKM2 (Homo sapiens, UniProt P14618)
Assay: PKM2 Assay (activation; LDH-coupled, NADH absorbance at 340 nm)
Format: biochemical
Conditions: PKM2 50 ng/well, ADP 0.7 mM, PEP 0.15 mM, no FBP in Reaction Mix
Description: • PKM2 stock enzyme solution was diluted in Reaction Buffer • 2 μL of compound was added into each well first, and then 180 μL of the Reaction Mix was added. • Reaction mixture with compound (without ADP) were incubated for 30 minutes at 4° C. • Plates were re-equilibrated to room temperature prior to adding 20 μL ADP to initiate the reaction. • Reaction progress was measured as changes in absorbance at 340 nm wavelength at room temperature (25° C.) Reaction Mix: PKM2 (50 ng/well), ADP (0.7 mM), PEP (0.15 mM), NADH (180 μM), LDH (2 units) in Reaction Buffer Reaction Buffer: 100 mM KCl, 50 mM Tris pH 7.5, 5 mM MgCl2, 1 mM DTT, 0.03% BSA.

PKM2, sequence (P14618 whole entry): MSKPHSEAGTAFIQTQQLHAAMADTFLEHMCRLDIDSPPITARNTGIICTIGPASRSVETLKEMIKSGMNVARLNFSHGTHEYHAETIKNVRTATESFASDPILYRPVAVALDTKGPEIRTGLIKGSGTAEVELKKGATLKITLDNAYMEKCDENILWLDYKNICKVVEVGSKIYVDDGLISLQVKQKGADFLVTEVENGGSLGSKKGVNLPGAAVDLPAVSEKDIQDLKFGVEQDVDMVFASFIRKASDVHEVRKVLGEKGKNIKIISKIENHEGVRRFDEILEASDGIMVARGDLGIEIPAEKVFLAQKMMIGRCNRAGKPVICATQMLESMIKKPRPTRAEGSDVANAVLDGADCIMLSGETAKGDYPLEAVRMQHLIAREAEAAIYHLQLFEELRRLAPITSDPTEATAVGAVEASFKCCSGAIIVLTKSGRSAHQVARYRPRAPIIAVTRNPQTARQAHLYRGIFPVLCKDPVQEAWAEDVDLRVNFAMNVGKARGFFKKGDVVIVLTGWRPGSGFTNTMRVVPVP

| SMILES | AC50 |
| --- | --- |
| Cn1c(=O)oc2cc(S(=O)(=O)Nc3ccc(F)c(Cl)c3)ccc21 | < 1 µM |
| Cn1c(=O)oc2cc(Cl)c(S(=O)(=O)Nc3ccc(F)cc3)cc21 | 1 to 10 µM |
| Cc1cc2oc(=O)n(C)c2cc1S(=O)(=O)Nc1ccc(Cl)c(F)c1 | 1 to 10 µM |
| Cn1c(=O)oc2cc(F)c(NS(=O)(=O)c3c(F)cccc3F)cc21 | > 100 µM |
| O=c1[nH]c2cc(NS(=O)(=O)c3c(F)cccc3F)ccc2s1 | 10 to 50 µM |
| Cn1c(=O)sc2cc(S(=O)(=O)N3CCCN(S(=O)(=O)c4c(F)cccc4F)CC3)ccc21 | 1 to 10 µM |
| Cn1c(=O)sc2cc(S(=O)(=O)Nc3ccc(F)cc3)ccc21 | < 1 µM |
| Cc1cc2sc(=O)sc2cc1S(=O)(=O)Nc1ccc(F)cc1 | 1 to 10 µM |
| Cc1ccc(NS(=O)(=O)c2cc3c(cc2C)oc(=O)n3C)cc1F | < 1 µM |
| COc1ccc(C)cc1S(=O)(=O)Nc1ccc2oc(=O)[nH]c2c1 | 10 to 50 µM |
| Cc1cc2c(cc1S(=O)(=O)N1CCN(S(=O)(=O)c3ccc4c(c3)OCCO4)CC1)oc(=O)n2C | < 1 µM |
| CCn1c(=O)oc2cc(S(=O)(=O)Nc3ccccc3Cl)ccc21 | 1 to 10 µM |
| Cc1cc2oc(=O)n(C)c2cc1S(=O)(=O)N1CCN(C(=O)Cc2ccc(C(F)(F)F)cc2)CC1 | > 100 µM |
| CCn1c(=O)oc2cc(C)c(NS(=O)(=O)c3cc(Cl)ccc3OC)cc21 | 10 to 50 µM |
| Cc1cc2oc(=O)n(C)c2cc1S(=O)(=O)Nc1ccc(OC(F)(F)F)c(Cl)c1 | 1 to 10 µM |
| Cc1cc(C)cc(NS(=O)(=O)c2cc3c(cc2Cl)oc(=O)n3C)c1 | < 1 µM |
| COCCn1c(=O)oc2cc(S(=O)(=O)Nc3ccc(F)c(Cl)c3)ccc21 | < 1 µM |
| COc1ccc(Cl)cc1NS(=O)(=O)c1ccc2c(c1)oc(=O)n2C | 1 to 10 µM |
| Cc1cc(NS(=O)(=O)c2cc(C)c3c(c2)oc(=O)n3CCN2CCOCC2)ccc1F | 1 to 10 µM |
| Cc1cc(C)cc(NS(=O)(=O)c2cc3sc(=O)n(C)c3cc2Cl)c1 | < 1 µM |
| Cn1c(=O)oc2cc(S(=O)(=O)Nc3ccccc3)ccc21 | 1 to 10 µM |
| Cn1c(=O)oc2cc(S(=O)(=O)Nc3cccc4ccccc34)ccc21 | 1 to 10 µM |
| O=c1oc2cc(S(=O)(=O)Nc3ccc(Cl)cc3)ccc2n1Cc1ccccc1 | 1 to 10 µM |
| COc1ccc(Cl)cc1S(=O)(=O)N1CCN(S(=O)(=O)c2cc3c(cc2F)oc(=O)n3C)CC1 | < 1 µM |
| Cn1c(=O)sc2cc(S(=O)(=O)Nc3ccc4ncccc4c3)ccc21 | 1 to 10 µM |
| COc1ccc(Cl)cc1S(=O)(=O)Nc1cc2c(cc1C)oc(=O)n2C [drawing 47] | < 1 µM |
| Cn1c(=O)oc2cc(F)c(NS(=O)(=O)c3cccs3)cc21 | > 100 µM |
| Cc1cc(NS(=O)(=O)c2cc3c(cc2C)oc(=O)n3C)ccc1Cl | < 1 µM |

Further lines, results first:

| AC50 | SMILES |
| --- | --- |
| < 1 µM | COCCn1c(=O)oc2cc(S(=O)(=O)Nc3cccc(Cl)c3)cc(C)c21 |
| 10 to 50 µM | COc1ccc(C)cc1S(=O)(=O)Nc1cc2[nH]c(=O)oc2cc1C |
| < 1 µM | Cc1cc(S(=O)(=O)Nc2ccc(F)c(Cl)c2)cc2oc(=O)n(C)c12 |
| 1 to 10 µM | Cn1c(=O)sc2cc(S(=O)(=O)N3CCN(S(=O)(=O)c4ccccc4)CC3)ccc21 |
| 10 to 50 µM | Cc1cc2sc(=O)sc2cc1S(=O)(=O)NC1CCCCC1 |
| 1 to 10 µM | Cn1c(=O)sc2ccc(NS(=O)(=O)c3c(F)cccc3F)cc21 |
| > 100 µM | Cc1cc(NS(=O)(=O)c2cc(CN(C)C)c3c(c2)oc(=O)n3C)ccc1F |
| 1 to 10 µM | Cc1cc(C)cc(NS(=O)(=O)c2ccc3c(c2)oc(=O)n3Cc2ccccc2)c1 |
| 1 to 10 µM | Cn1c(=O)sc2cc(S(=O)(=O)Nc3cccc4ccccc34)ccc21 |
| 1 to 10 µM | Cn1c(=O)oc2cc(F)c(S(=O)(=O)Nc3ccccc3)cc21 [drawing 242] |
| > 100 µM | Cc1cc2oc(=O)n(C)c2cc1S(=O)(=O)Nc1c(F)cccc1F |
| 10 to 50 µM | CCn1c(=O)sc2ccc(NS(=O)(=O)c3cccs3)cc21 |
| 1 to 10 µM | Cc1cc2oc(=O)n(C)c2cc1S(=O)(=O)Nc1cc(F)cc(F)c1 |
| 1 to 10 µM | Cc1cc2oc(=O)n(C)c2cc1S(=O)(=O)N1CCCN(c2ccc(C(F)(F)F)cn2)CC1 |
